Laboratory results from patent EP0801063B1, “Thiazolidinedione derivatives having antidiabetic, hypolipidaemic, antihypertensive properties, process for their preparation and pharmaceutical compositions containing them” (Dr. Reddy's Laboratories Ltd., priority 1996, dated 1997).

System: C57BL/KsJ-db/db mice
Assay: Blood sugar and triglyceride lowering in db/db mice (in vivo test)
Details: male C57BL/KsJ-db/db mice, 200 mg / kg oral gavage daily for 10 days; for Maximum reduction in RBS level in a 9 days treatment (%): random blood sugar in plasma, glucose oxidase method, relative to vehicle control
Experimental: Male C57BL/KsJ-db/db mice of 6 weeks age procured from the Jackson Laboratory, USA were used in the experiment. The mice were provided with standard pellets made by National Institute of Nutrition, Hyderabad, India and ad libitum water. The mice of 8 to 14 weeks age, having body weight 40 to 55 grams or more were used for testing.
The random blood sugar (RBS) values were measured by withdrawing blood (20 ul) through orbital sinus, using heparinised capillary, centrifuging the blood to obtain plasma and measuring the glucose level in the plasma by the glucose oxidase method using Stangen glucose-kit. The triglyceride levels in plasma were measured by glycerol 3 PO4 oxidase / peroxidase enzyme method using Stangen kit. Four mice in a group having 300 mg / dl or more of the blood sugar level were used for the test.
The test compounds were suspended in 2.0 % gum acacia and administered to test group at a dose of 200 mg / kg, through oral gavage daily for 10 days. The control group received the vehicle (Gum acacia 2 % 10 ml / kg). The random blood sugar levels and triglyceride levels were measured at diffirent time intervals before and after administration of test compounds. Troglitazone, (200 mg / kg daily dose) was used as a standard compound in the protocol.
The ability of reducing blood sugar level was determined as described below. The mean blood sugar values on zero day before administering the control vehicle (ZC) and treated group (TC) and the means of blood sugar values of the vehicle treated control on 3rd, 6th and 9th day and test compound treated group day control (DC) and day treated (DT).
The blood sugar lowering effect of test compound is calculated according to the following formula : Blood sugar lowering effect (%) = 1 -(DT/TC)/(DC/ZC)X 100 [formula]
The blood triglyceride (TG) lowering activity was calculated as percent reduction on the 9th day as compared to the control animal values.

Row | SMILES | Maximum reduction in RBS level in a 9 days treatment (%) | Triglyceride lowering (%) (plasma triglyceride, percent reduction on the 9th day compared to control animals)
1 | Cc1c(C)c2c(c(C)c1O)CCC(C)(COc1ccc(CC3SC(=O)NC3=O)cc1)O2 (stereo not drawn) [Troglitazone, reference compound] | 26% | –
2 | Cc1c(C)c2c(c(C)c1O)CCC(C)(CN(C)CCOc1ccc(C=C3SC(=O)NC3=O)cc1)O2 (stereo not drawn) [Example 12, 5-[4-[2-[N-(6-Hydroxy-2,5,7,8-tetramethylchroman-2-ylmethyl)-N-methylamino]ethoxy]phenylmethylene]thiazolidine-2,4-dione] | 43% | 70%
